Earlier results as cited in patent US20220193081A1 (Ellamed IP & Services PTE. LTD., priority 2019, published 2022).
Read-outs that look alike come from different tables or passages of the source.

Settings: cited from earlier work
[1] = EMEA CHMP Assessment Report for VIZARSIN
[2] = Jordanian Pharmaceutical Manufacturing Co.

CCCc1nn(C)c2c(=O)nc(-c3cc(S(=O)(=O)N4CCN(C)CC4)ccc3OCC)[nH]c12.O=C(O)CC(O)(CC(=O)O)C(=O)O [sildenafil citrate, 1-[[3-(4,7-Dihydro-1-methyl-7-oxo-3-propyl-1H-pyrazolo[4,3-d]pyrimidin-5-yl)-4-ethoxyphenyl]sulfonyl]-4-methylpiperazine citrate salt]
solubility in acetone [1]: insoluble
solubility in chloroform [1]: insoluble
solubility in dimethyl sulfoxide (DMSO) [1]: soluble
solubility in ethanol [1]: insoluble
solubility in methanol [1]: soluble
solubility in ethanol [2]: ~1000 µg/mL
times less soluble in ethanol than in water [2]: about 3.5 times
